Results reported in US6737383B1, “Herbicidal oxadiazolidines” (priority 1999, dated 2004).

Experiments:
corn = assay: Test B pre/postemergence corn; type: in vivo, Zea mays
Procedure, shortened: (§1)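 Response is a visual 0-to-10 score relative to untreated plants, where 0 means no effect and 10 means complete control, taken twelve to sixteen days after application. Treatments went onto soil at planting and onto foliage of 1- to 4-leaf plants, using a surfactant-containing non-phytotoxic solvent.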

morningglory = assay: Test B pre/postemergence morningglory; type: in vivo, Ipomoea hederacea
Procedure, shortened: as §1

blackgrass = assay: Test B pre/postemergence blackgrass; type: in vivo, Alopecurus myosuroides
Procedure, shortened: as §1

duck salad = assay: Test B flood test duck salad; type: in vivo, Heteranthera limosa
Procedure, shortened: (§2)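 Flood test on plants grown to the 2-leaf stage; treated plants kept in greenhouse twelve to sixteen days, then visually rated against controls on a 0 (no effect) to 10 (complete control) scale.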

wild oat = assay: Test B pre/postemergence wild oat; type: in vivo, Avena fatua
Procedure, shortened: as §1

purple nutsedge = assay: Test B pre/postemergence purple nutsedge; type: in vivo, Cyperus rotundus
Procedure, shortened: as §1

surinam grass = assay: Test B pre/postemergence surinam grass; type: in vivo, Brachiaria decumbens
Procedure, shortened: as §1

giant foxtail = assay: Test B pre/postemergence giant foxtail; type: in vivo, Setaria faberii
Procedure, shortened: as §1

soybean = assay: Test B pre/postemergence soybean; type: in vivo, Glycine max
Procedure, shortened: as §1

velvetleaf = assay: Test B pre/postemergence velvetleaf; type: in vivo, Abutilon theophrasti
Procedure, shortened: as §1

wheat = assay: Test B pre/postemergence wheat; type: in vivo, Triticum aestivum
Procedure, shortened: as §1

smallflower flatsedge = assay: Test B flood test smallflower flatsedge; type: in vivo, Cyperus difformis
Procedure, shortened: as §2

rice = assay: Test B flood test rice; type: in vivo, Oryza sativa
Procedure, shortened: as §2

pigweed = assay: Test B pre/postemergence pigweed; type: in vivo, Amaranthus retroflexus
Procedure, shortened: as §1

crabgrass = assay: Test B pre/postemergence crabgrass; type: in vivo, Digitaria sanguinalis
Procedure, shortened: as §1

bedstraw = assay: Test B pre/postemergence bedstraw; type: in vivo, Galium aparine
Procedure, shortened: as §1

[1] = Postemergence, Rate 125 g/ha, scale of 0 to 10 where 0 is no effect and 10 is complete control
[2] = Preemergence, Rate 62 g/ha, scale 0 to 10 (0 no effect, 10 complete control)
[3] = Preemergence, Rate 125 g/ha, 0 is no effect, 10 is complete control
[4] = Preemergence, Rate 250 g/ha, scale 0 to 10, 0 is no effect, 10 is complete control
[5] = Preemergence, Rate 500 g/ha, scale 0 to 10 (0 no effect, 10 complete control)
[6] = Rate 62 g/ha, Postemergence, scale of 0 to 10 where 0 is no effect and 10 is complete control
[7] = Rate 250 g/ha, Postemergence, scale 0 to 10, 0 is no effect, 10 is complete control
[8] = Rate 500 g/ha, Postemergence, scale 0 to 10
[9] = Postemergence (flood test species), Rate 125 g/ha, scale of 0 to 10 where 0 is no effect and 10 is complete control
[10] = Rate 62 g/ha, Postemergence section, flood test species, scale of 0 to 10 where 0 is no effect and 10 is complete control
[11] = Rate 250 g/ha, Postemergence (flood test), scale 0 to 10, 0 is no effect, 10 is complete control
[12] = Rate 500 g/ha, listed under Postemergence (flood test species), scale 0 to 10

For `C=CCn1c(=O)on(C(=O)N(c2ccc(F)cc2F)C(C)C)c1=O` [Compound 151], the “Corn plant response rating” value (corn; [1]) was 0, the “Corn plant response rating” value (corn; [2]) was 0 and the “Corn plant response rating (0 to 10 scale)” value (corn; [3]) was 0. For the same compound, the “Corn plant response rating” value (corn; [4]) was 5, the “Corn plant response rating” value (corn; [5]) was 9 and the “Corn plant response rating” value (corn; [6]) was 0. The “Plant response rating, Corn” value (corn; [7]) was 2, the “Corn plant response rating” value (corn; [8]) was 6 and the “Morningglory plant response rating” value (morningglory; [2]) was 0. For the same compound, the “Morningglory plant response rating (0 to 10 scale)” value (morningglory; [3]) was 0, the “Morningglory plant response rating” value (morningglory; [4]) was 0 and the “Morningglory plant response rating” value (morningglory; [5]) was 0. For the same compound, the “Morningglory plant response rating” value (morningglory; [6]) was 4, the “Plant response rating, Morningglory” value (morningglory; [7]) was 6 and the “Morningglory plant response rating” value (morningglory; [8]) was 6. The “Blackgrass plant response rating” value (blackgrass; [1]) was 8, the “Blackgrass plant response rating” value (blackgrass; [2]) was 8 and the “Blackgrass plant response rating (0 to 10 scale)” value (blackgrass; [3]) was 9. For the same compound, the “Blackgrass plant response rating” value (blackgrass; [4]) was 10, the “Blackgrass plant response rating” value (blackgrass; [5]) was 10 and the “Blackgrass plant response rating” value (blackgrass; [6]) was 8. The “Plant response rating, Blackgrass” value (blackgrass; [7]) was 8, the “Blackgrass plant response rating” value (blackgrass; [8]) was 9 and the “Ducksalad plant response rating” value (duck salad; [9]) was 0. For the same compound, the “Ducksalad plant response rating” value (duck salad; [10]) was 0, the “Plant response rating, Ducksalad” value (duck salad; [11]) was 0 and the “Ducksalad plant response rating” value (duck salad; [12]) was 2. The “Wild oats plant response rating” value (wild oat; [2]) was 8, the “Wild oats plant response rating (0 to 10 scale)” value (wild oat; [3]) was 9 and the “Wild oats plant response rating” value (wild oat; [4]) was 10. For the same compound, the “Wild oats plant response rating” value (wild oat; [5]) was 10, the “Plant response rating, Wild oats” value (wild oat; [7]) was 6 and the “Wild oats plant response rating” value (wild oat; [8]) was 8. The “Nutsedge plant response rating” value (purple nutsedge; [1]) was 3, the “Nutsedge plant response rating” value (purple nutsedge; [2]) was 0 and the “Nutsedge plant response rating (0 to 10 scale)” value (purple nutsedge; [3]) was 0. For the same compound, the “Nutsedge plant response rating” value (purple nutsedge; [4]) was 0, the “Nutsedge plant response rating” value (purple nutsedge; [5]) was 2 and the “Nutsedge plant response rating” value (purple nutsedge; [6]) was 2. For the same compound, the “Plant response rating, Nutsedge” value (purple nutsedge; [7]) was 5, the “Nutsedge plant response rating” value (purple nutsedge; [8]) was 5 and the “B. signalgrass plant response rating” value (surinam grass; [1]) was 4. For the same compound, the “B. signalgrass plant response rating” value (surinam grass; [2]) was 4, the “B. signalgrass plant response rating” value (surinam grass; [4]) was 5 and the “B. signalgrass plant response rating” value (surinam grass; [5]) was 7. For the same compound, the “B. signalgrass plant response rating” value (surinam grass; [6]) was 3, the “Plant response rating, B. signalgrass” value (surinam grass; [7]) was 6 and the “B. signalgrass plant response rating” value (surinam grass; Rate 500 g/ha, Postemergence, scale of 0 to 10 where 0 is no effect and 10 is complete control) was 7. For the same compound, the “Giant foxtail plant response rating” value (giant foxtail; [1]) was 8, the “Giant foxtail plant response rating” value (giant foxtail; [2]) was 9 and the “Giant foxtail plant response rating (0 to 10 scale)” value (giant foxtail; [3]) was 10. The “Giant foxtail plant response rating” value (giant foxtail; [4]) was 10, the “Giant foxtail plant response rating” value (giant foxtail; [5]) was 10 and the “Giant foxtail plant response rating” value (giant foxtail; [6]) was 7. For the same compound, the “Plant response rating, Giant foxtail” value (giant foxtail; [7]) was 8, the “Giant foxtail plant response rating” value (giant foxtail; [8]) was 8 and the “Soybean plant response rating” value (soybean; [1]) was 4. For the same compound, the “Soybean plant response rating” value (soybean; [2]) was 0, the “Soybean plant response rating (0 to 10 scale)” value (soybean; [3]) was 0 and the “Soybean plant response rating” value (soybean; [4]) was 3. The “Soybean plant response rating” value (soybean; [5]) was 7, the “Soybean plant response rating” value (soybean; [6]) was 3 and the “Plant response rating, Soybean” value (soybean; [7]) was 4. For the same compound, the “Soybean plant response rating” value (soybean; [8]) was 4, the “Velvetleaf plant response rating” value (velvetleaf; [2]) was 6 and the “Velvetleaf plant response rating (0 to 10 scale)” value (velvetleaf; [3]) was 8. For the same compound, the “Velvetleaf plant response rating” value (velvetleaf; [4]) was 10, the “Velvetleaf plant response rating” value (velvetleaf; [5]) was 10 and the “Velvetleaf plant response rating” value (velvetleaf; [6]) was 3. For the same compound, the “Plant response rating, Velvetleaf” value (velvetleaf; [7]) was 3, the “Velvetleaf plant response rating” value (velvetleaf; [8]) was 5 and the “Wheat plant response rating” value (wheat; [2]) was 2. For the same compound, the “Wheat plant response rating (0 to 10 scale)” value (wheat; [3]) was 2, the “Wheat plant response rating” value (wheat; [4]) was 4 and the “Wheat plant response rating” value (wheat; [5]) was 5. For the same compound, the “Wheat plant response rating” value (wheat; [6]) was 0, the “Plant response rating, Wheat” value (wheat; [7]) was 4 and the “Wheat plant response rating” value (wheat; [8]) was 8. For the same compound, the “S. Flatsedge plant response rating” value (smallflower flatsedge; [9]) was 0, the “S. Flatsedge plant response rating” value (smallflower flatsedge; [10]) was 0 and the “Plant response rating, S. Flatsedge” value (smallflower flatsedge; [11]) was 0. For the same compound, the “S. Flatsedge plant response rating” value (smallflower flatsedge; [12]) was 8, the “Rice plant response rating” value (rice; [9]) was 0 and the “Rice plant response rating” value (rice; [10]) was 0. The “Plant response rating, Rice” value (rice; [11]) was 0, the “Rice plant response rating” value (rice; [12]) was 0 and the “Redroot pigweed plant response rating” value (pigweed; [1]) was 3. For the same compound, the “Redroot pigweed plant response rating” value (pigweed; [2]) was 10, the “Redroot pigweed plant response rating (0 to 10 scale)” value (pigweed; [3]) was 10 and the “Redroot pigweed plant response rating” value (pigweed; [4]) was 10. The “Redroot pigweed plant response rating” value (pigweed; [5]) was 10, the “Redroot pigweed plant response rating” value (pigweed; [6]) was 3 and the “Plant response rating, Redroot pigweed” value (pigweed; [7]) was 5. The “Redroot pigweed plant response rating” value (pigweed; [8]) was 7, the “Crabgrass plant response rating” value (crabgrass; [1]) was 9 and the “Crabgrass plant response rating” value (crabgrass; [2]) was 10. For the same compound, the “Crabgrass plant response rating (0 to 10 scale)” value (crabgrass; [3]) was 10, the “Crabgrass plant response rating” value (crabgrass; [4]) was 10 and the “Crabgrass plant response rating” value (crabgrass; [5]) was 10. The “Crabgrass plant response rating” value (crabgrass; [6]) was 8, the “Plant response rating, Crabgrass” value (crabgrass; [7]) was 9 and the “Crabgrass plant response rating” value (crabgrass; [8]) was 9. The “Bedstraw plant response rating” value (bedstraw; [1]) was 3, the “Bedstraw plant response rating” value (bedstraw; [2]) was 0 and the “Bedstraw plant response rating (0 to 10 scale)” value (bedstraw; [3]) was 0. For the same compound, the “Bedstraw plant response rating” value (bedstraw; [4]) was 0, the “Bedstraw plant response rating” value (bedstraw; [5]) was 0 and the “Bedstraw plant response rating” value (bedstraw; [6]) was 3. The “Plant response rating, Bedstraw” value (bedstraw; [7]) was 4 and the “Bedstraw plant response rating” value (bedstraw; Rate 500 g/ha, Postemergence, scale 0 to 10, 0 no effect, 10 complete control) was 7.
